Test system: P12-Ichikawa
Assay: cell viability relative to DMSO control; higher = less cytotoxic
Conditions: 48 h
Method in brief: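 Viability is a per-plate percentage relative to DMSO wells, with cell-free wells as background. CellTiter-Glo One luminescence was read after 48 h at 37°C on 1536-well plates (5 μl) of NOMO1 or SEM (500 cells/well) or P12-Ichikawa (1000 cells/well) leukemia cells. The cells had been adapted for at least four passages in each medium and pin-dosed with library compounds in DMSO from 47 μM to 0.79 nM in 11 threefold steps.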

[1] = HPLM + 10% dialyzed FBS, 0.000781 µM
[2] = HPLM + 10% dialyzed FBS, 0.00234 µM
[3] = HPLM + 10% dialyzed FBS, 0.00702 µM
[4] = HPLM + 10% dialyzed FBS, 0.0211 µM
[5] = HPLM + 10% dialyzed FBS, 0.0632 µM
[6] = HPLM + 10% dialyzed FBS, 0.19 µM
[7] = HPLM + 10% dialyzed FBS, 0.569 µM
[8] = HPLM + 10% dialyzed FBS, 1.71 µM
[9] = HPLM + 10% dialyzed FBS, 5.12 µM
[10] = HPLM + 10% dialyzed FBS, 15.4 µM
[11] = HPLM + 10% dialyzed FBS, 46.1 µM
[12] = RPMI 5 mM glucose + 10% FBS, 0.000781 µM
[13] = RPMI 5 mM glucose + 10% FBS, 0.00234 µM
[14] = RPMI 5 mM glucose + 10% FBS, 0.00702 µM
[15] = RPMI 5 mM glucose + 10% FBS, 0.0211 µM
[16] = RPMI 5 mM glucose + 10% FBS, 0.0632 µM
[17] = RPMI 5 mM glucose + 10% FBS, 0.19 µM
[18] = RPMI 5 mM glucose + 10% FBS, 0.569 µM
[19] = RPMI 5 mM glucose + 10% FBS, 1.71 µM
[20] = RPMI 5 mM glucose + 10% FBS, 5.12 µM
[21] = RPMI 5 mM glucose + 10% FBS, 15.4 µM
[22] = RPMI 5 mM glucose + 10% FBS, 46.1 µM
[23] = RPMI 5 mM glucose + 10% dialyzed FBS, 0.000781 µM
[24] = RPMI 5 mM glucose + 10% dialyzed FBS, 0.00234 µM
[25] = RPMI 5 mM glucose + 10% dialyzed FBS, 0.00702 µM
[26] = RPMI 5 mM glucose + 10% dialyzed FBS, 0.0211 µM
[27] = RPMI 5 mM glucose + 10% dialyzed FBS, 0.0632 µM
[28] = RPMI 5 mM glucose + 10% dialyzed FBS, 0.19 µM
[29] = RPMI 5 mM glucose + 10% dialyzed FBS, 0.569 µM
[30] = RPMI 5 mM glucose + 10% dialyzed FBS, 1.71 µM
[31] = RPMI 5 mM glucose + 10% dialyzed FBS, 5.12 µM
[32] = RPMI 5 mM glucose + 10% dialyzed FBS, 15.4 µM
[33] = RPMI 5 mM glucose + 10% dialyzed FBS, 46.1 µM

SMILES | cell viability [1] | cell viability [2] | cell viability [3] | cell viability [4] | cell viability [5] | cell viability [6] | cell viability [7] | cell viability [8] | cell viability [9] | cell viability [10] | cell viability [11] | cell viability [12] | cell viability [13] | cell viability [14] | cell viability [15] | cell viability [16] | cell viability [17] | cell viability [18] | cell viability [19] | cell viability [20] | cell viability [21] | cell viability [22] | cell viability [23] | cell viability [24] | cell viability [25] | cell viability [26] | cell viability [27] | cell viability [28] | cell viability [29] | cell viability [30] | cell viability [31] | cell viability [32] | cell viability [33]
CCn1c(-c2nonc2N)nc2cnc(Oc3cccc(NC(=O)c4ccc(OCCN5CCOCC5)cc4)c3)cc21 | 110% | 107% | 111% | 111% | 112% | 109% | 112% | 116% | 94.9% | 77% | 70.1% | 106% | 122% | 107% | 115% | 107% | 113% | 98.5% | 102% | 89.5% | 66.3% | 55.4% | 104% | 116% | 127% | 117% | 115% | 124% | 117% | 102% | 102% | 74.9% | 69.5%
CN(C)C1=CC=C(C=C1)C(C2=CC=C(C=C2)N(C)C)=C/3\C=C/C(/C=C3)=[N+](C)C | 114% | 107% | 122% | 116% | 115% | 74.1% | 18.5% | 1.52% | 1.65% | 1.9% | 0.24% | 107% | 103% | 102% | 111% | 94.9% | 24.6% | 14.9% | 3.64% | 6.36% | 4.49% | 0.553% | 110% | 104% | 115% | 106% | 94.1% | 34.3% | 19.2% | 10.9% | 12.8% | 3.78% | 0.17%
CNC1CCC(N(Cc2cccc(-c3ccncc3)c2)C(=O)c2sc3c(F)ccc(F)c3c2Cl)CC1 (stereo unspecified) | 87.6% | 101% | 106% | 105% | 107% | 109% | 104% | 114% | 101% | 99.3% | 71.4% | 92.9% | 109% | 98.2% | 104% | 110% | 105% | 108% | 100% | 106% | 94.9% | 72.8% | 92.8% | 102% | 105% | 105% | 97.5% | 105% | 106% | 94.3% | 103% | 93.6% | 55.3%
Cc1ccc([S+](=O)([O-])N[C@@H](Cc2ccccc2)C(=O)CCl)cc1 | 95% | 106% | 101% | 101% | 105% | 107% | 105% | 106% | 104% | 94.4% | 46.4% | 90.8% | 92.4% | 95.7% | 104% | 113% | 107% | 88.7% | 105% | 109% | 96.2% | 36% | 93.9% | 92.6% | 97.2% | 102% | 95.1% | 91.3% | 93.2% | 94.7% | 106% | 105% | 36.9%
COc1ccc(C(C)=O)c(O)c1 | 100% | 106% | 115% | 109% | 109% | 114% | 117% | 102% | 107% | 24% | 31% | 115% | 115% | 106% | 120% | 128% | 117% | 114% | 112% | 116% | 22% | 30.6% | 103% | 109% | 109% | 104% | 110% | 114% | 114% | 99.9% | 110% | 25.8% | 25.4%
CNc1nccc(-c2cccnc2Oc2cc(C(=O)Nc3cccc(C(F)(F)F)c3)ccc2C)n1 | 105% | 111% | 111% | 113% | 106% | 122% | 118% | 123% | 117% | 91% | 105% | 112% | 113% | 112% | 119% | 119% | 121% | 115% | 127% | 119% | 82.8% | 103% | 105% | 101% | 104% | 114% | 112% | 110% | 112% | 120% | 111% | 90.7% | 103%
CCOC(=O)C/1=C(O)/C(=O)N(CC2=CC=CC=C2)C1 | 114% | 114% | 114% | 112% | 111% | 113% | 109% | 109% | 99.1% | 99.8% | 100% | 116% | 121% | 115% | 119% | 128% | 120% | 106% | 122% | 114% | 106% | 99.5% | 107% | 109% | 123% | 111% | 113% | 111% | 120% | 106% | 114% | 107% | 99.2%
